Patent US10738057B2, “Tertiary alcohols as PI3K-γ inhibitors” (Incyte Corporation, priority 2017, dated 2020)
Structures can show the parent of a compound that is named as a salt. Where two headings read alike, the source gives them in different places.

Legend:
[1] = test system: Phosphorylated Ribosomal Protein S6 (RPS6) in THP-1 cells; test: THP-1 RPS6 ELISA assay; assay type: cell-based, Human; conditions: serum starved, 2 h compound, 10 nM MCP-1 for 15 min, phospho-RPS6 ELISA, read-out: PI3Kγ_THP1_RPS6_ELISA IC50
Experimental: Example A. THP-1 RPS6 ELISA Assay
To measure the Phosphorylated Ribosomal Protein S6 (RPS6) in cell lysates, THP-1 cells (Human Acute Monocytic Leukemia) are purchased from ATCC (Manassas, Va.) and maintained in RPMI with 10% FBS (Gibco/Life Technologies, Carlsbad, Calif.). For the assay, THP-1 cells are serum starved overnight in RPMI, then plated in RPMI (2×10^5 cells/well in 90 μL) into 96-well flat-bottom tissue culture treated plates (Corning, Corning, N.Y.), in the presence or absence of a concentration range of test compounds. Covered plates are incubated for 2 hours at 37° C., 5% CO2 then treated with or without 10 nM MCP-1 (MYBioSource, San Diego, Calif.) for 15 minutes at 37° C., 5% CO2. Plates are centrifuged at 1600 RPM and supernatants are removed. Cells are lysed in Lysis Buffer (Cell Signaling, Danvers, Mass.) with Protease Inhibitor (Calbiochem/EMD, Germany), PMSF (Sigma, St Louis Mo.), HALTS (Thermo Fisher, Rockford, Ill.) for 30 min on wet ice. Cell lysates are frozen at −80° C. before testing. The lysates are tested in the Human/Mouse/Rat Phospho-RPS6 ELISA (R&D Systems, Inc. Minn, Minn.). The plate is measured using a microplate reader (SpectraMax M5—Molecular Devices, LLC Sunnyvale, Calif.) set to 450 nm with a wavelength correction of 540. IC50 determination is performed by fitting the curve of inhibitor percent inhibition versus the log of the inhibitor concentration using the GraphPad Prism 5.0 software.

[2] = target: PI3Kδ (p110δ/p85α) Recombinant Human Protein (Homo sapiens (Human), UniProt O00329); test: PI3Kδ scintillation proximity assay; assay type: biochemical; conditions: 20 μM PIP2, 2 μM ATP, 3.4 nM PI3Kδ, 120 min, room temperature; read-out: PI3Kδ IC50
Experimental: PI3Kδ Scintillation Proximity Assay
[γ-^33P]ATP (10 mCi/mL) and Wheat Germ Agglutinin (WGA) YSi SPA Scintillation Beads was purchased from PerkinElmer (Waltham, Mass.). […] PI3Kδ (p110δ/p85α) Recombinant Human Protein was purchased from Eurofins (St Charles, Mo.). ATP, MgCl2, DTT, EDTA, MOPS and CHAPS were purchased from SigmaAldrich (St. Louis, Mo.).
The kinase reaction was conducted in polystyrene 384-well Greiner Bio-one white plate from Thermo Fisher Scientific in a final volume of 25 μL. Inhibitors were first diluted serially in DMSO and added to the plate wells before the addition of other reaction components. The final concentration of DMSO in the assay was 2%. The PI3Kδ assay was carried out at room temperature in 20 mM MOPS, pH 6.7, 10 mM MgCl2, 5 mM DTT and CHAPS 0.03%. Reactions were initiated by the addition of ATP, the final reaction mixture consisted of 20 μM PIP2, 2 μM ATP, 0.5 μCi [γ-^33P] […] The final concentration of SPA beads is 1.0 mg/mL. After the plate sealing, plates were shaken overnight at room temperature and centrifuged at 1500 rpm for 10 min, the radioactivity of the product was determined by scintillation counting on Topcount (PerkinElmer). IC50 determination was performed by fitting the curve of percent of the solvent control activity versus the log of the inhibitor concentration using the GraphPad Prism 6.0 software.

[3] = target: PI3Kγ (p110γ) Recombinant Human Protein (Homo sapiens (Human), UniProt P48736); test: PI3K-γ scintillation proximity assay; assay type: biochemical; conditions: 20 μM PIP2, 2 μM ATP, 13 nM PI3Kγ, 120 min, room temperature
From the text: Example B. PI3K-γ Scintillation Proximity Assay
[γ-^33P]ATP (10 mCi/mL) and Wheat Germ Agglutinin (WGA) YSi SPA Scintillation Beads was purchased from PerkinElmer (Waltham, Mass.). Lipid kinase substrate, D-myo-Phosphatidylinositol 4,5-bisphosphate (PtdIns(4,5)P2)D (+)-sn-1,2-di-O-octanoylglyceryl, 3-O-phospho linked (PIP2), CAS 204858-53-7, was purchased from Echelon Biosciences (Salt Lake City, Utah). PI3Kγ (p110γ) Recombinant Human Protein was purchased from Life technology (Grand Island, N.Y.). ATP, MgCl2, DTT, EDTA, MOPS and CHAPS were purchased from SigmaAldrich (St. Louis, Mo.).
The kinase reaction was conducted in polystyrene 384-well Greiner Bio-one white plate from Thermo Fisher Scientific in a final volume of 25 μL. Inhibitors were first diluted serially in DMSO and added to the plate wells before the addition of other reaction components. The final concentration of DMSO in the assay was 2%. The PI3Kγ assay was carried out at room temperature in 20 mM MOPS, pH 6.7, 10 mM MgCl2, 5 mM DTT and CHAPS 0.03%. Reactions were initiated by the addition of ATP, the final reaction mixture consisted of 20 μM PIP2, 2 μM ATP, 0.5 μCi [γ-^33P] ATP, 13 nM PI3Kγ. Reactions were incubated for 120 min and terminated by the addition of 40 μL SPA beads suspended in quench buffer: 163 mM potassium phosphate pH 7.8, 20% glycerol, 25 mM EDTA. The final concentration of SPA beads is 1.0 mg/mL. After the plate sealing, plates were shaken overnight at room temperature and centrifuged at 1500 rpm for 10 min, the radioactivity of the product was determined by scintillation counting on Topcount (Perkin-Elmer). IC50 determination was performed by fitting the curve of percent of the solvent control activity versus the log of the inhibitor concentration using the GraphPad Prism 6.0 software.

[4] = Homo sapiens, THP-1, THP-1 cells

PI3Kγ (p110γ) Recombinant Human Protein, sequence (P48736 whole entry): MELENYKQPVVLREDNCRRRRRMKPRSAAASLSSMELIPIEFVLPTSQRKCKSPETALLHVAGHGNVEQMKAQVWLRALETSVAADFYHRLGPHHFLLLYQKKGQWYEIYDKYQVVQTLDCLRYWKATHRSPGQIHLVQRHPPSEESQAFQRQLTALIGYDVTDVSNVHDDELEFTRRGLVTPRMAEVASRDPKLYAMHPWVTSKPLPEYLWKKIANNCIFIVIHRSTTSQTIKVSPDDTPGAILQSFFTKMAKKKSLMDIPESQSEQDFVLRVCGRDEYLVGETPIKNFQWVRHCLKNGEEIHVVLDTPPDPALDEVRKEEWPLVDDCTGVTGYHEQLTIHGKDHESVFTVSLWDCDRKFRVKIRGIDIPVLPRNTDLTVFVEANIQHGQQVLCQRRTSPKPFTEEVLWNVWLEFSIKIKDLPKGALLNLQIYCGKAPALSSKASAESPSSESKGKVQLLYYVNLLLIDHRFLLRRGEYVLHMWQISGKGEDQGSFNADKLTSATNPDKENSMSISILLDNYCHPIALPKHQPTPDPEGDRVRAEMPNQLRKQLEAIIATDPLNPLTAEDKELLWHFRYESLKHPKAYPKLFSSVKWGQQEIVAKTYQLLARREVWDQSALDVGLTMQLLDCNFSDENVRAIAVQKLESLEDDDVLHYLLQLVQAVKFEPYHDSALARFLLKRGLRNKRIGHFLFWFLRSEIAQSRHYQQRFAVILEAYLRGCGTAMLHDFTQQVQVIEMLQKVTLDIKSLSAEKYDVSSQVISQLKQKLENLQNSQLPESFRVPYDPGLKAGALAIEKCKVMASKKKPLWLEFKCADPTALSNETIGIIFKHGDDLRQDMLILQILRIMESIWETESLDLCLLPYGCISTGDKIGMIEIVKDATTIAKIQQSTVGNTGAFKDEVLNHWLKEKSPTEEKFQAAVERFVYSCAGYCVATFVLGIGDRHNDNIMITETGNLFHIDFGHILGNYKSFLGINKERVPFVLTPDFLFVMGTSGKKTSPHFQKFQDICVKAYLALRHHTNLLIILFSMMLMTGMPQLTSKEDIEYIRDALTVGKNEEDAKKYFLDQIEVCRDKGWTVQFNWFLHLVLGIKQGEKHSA
PI3Kδ (p110δ/p85α) Recombinant Human Protein, sequence (O00329 whole entry): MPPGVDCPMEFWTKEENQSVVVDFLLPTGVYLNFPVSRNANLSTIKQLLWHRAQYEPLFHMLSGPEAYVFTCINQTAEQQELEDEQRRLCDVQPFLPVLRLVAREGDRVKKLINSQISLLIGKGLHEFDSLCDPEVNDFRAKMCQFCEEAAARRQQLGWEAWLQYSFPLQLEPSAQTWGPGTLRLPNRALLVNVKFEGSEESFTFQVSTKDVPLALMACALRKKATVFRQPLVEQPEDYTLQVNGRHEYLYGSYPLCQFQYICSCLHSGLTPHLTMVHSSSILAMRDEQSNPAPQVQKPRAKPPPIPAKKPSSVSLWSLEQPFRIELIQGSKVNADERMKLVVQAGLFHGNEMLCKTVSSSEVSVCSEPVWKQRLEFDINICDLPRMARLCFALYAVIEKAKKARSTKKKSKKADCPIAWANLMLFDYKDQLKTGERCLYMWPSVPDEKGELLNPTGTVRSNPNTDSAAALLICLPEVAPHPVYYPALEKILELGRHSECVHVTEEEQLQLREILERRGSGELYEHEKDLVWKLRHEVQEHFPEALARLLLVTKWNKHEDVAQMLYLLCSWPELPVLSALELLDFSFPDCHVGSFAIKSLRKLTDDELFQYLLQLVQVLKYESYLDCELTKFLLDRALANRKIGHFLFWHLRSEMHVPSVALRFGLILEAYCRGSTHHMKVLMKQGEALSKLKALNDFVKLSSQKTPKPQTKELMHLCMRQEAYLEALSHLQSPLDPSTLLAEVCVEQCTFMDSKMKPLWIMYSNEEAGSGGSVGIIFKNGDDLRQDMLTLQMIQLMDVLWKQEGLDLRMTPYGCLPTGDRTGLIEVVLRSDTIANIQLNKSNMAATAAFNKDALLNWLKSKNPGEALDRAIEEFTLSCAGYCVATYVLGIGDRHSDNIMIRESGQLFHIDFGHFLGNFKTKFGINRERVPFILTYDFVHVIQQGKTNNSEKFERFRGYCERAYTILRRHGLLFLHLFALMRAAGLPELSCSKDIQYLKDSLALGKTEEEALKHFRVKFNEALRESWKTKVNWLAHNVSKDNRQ
PI3Kδ (p110δ/p85α) Recombinant Human Protein, sequence (P27986 whole entry partner): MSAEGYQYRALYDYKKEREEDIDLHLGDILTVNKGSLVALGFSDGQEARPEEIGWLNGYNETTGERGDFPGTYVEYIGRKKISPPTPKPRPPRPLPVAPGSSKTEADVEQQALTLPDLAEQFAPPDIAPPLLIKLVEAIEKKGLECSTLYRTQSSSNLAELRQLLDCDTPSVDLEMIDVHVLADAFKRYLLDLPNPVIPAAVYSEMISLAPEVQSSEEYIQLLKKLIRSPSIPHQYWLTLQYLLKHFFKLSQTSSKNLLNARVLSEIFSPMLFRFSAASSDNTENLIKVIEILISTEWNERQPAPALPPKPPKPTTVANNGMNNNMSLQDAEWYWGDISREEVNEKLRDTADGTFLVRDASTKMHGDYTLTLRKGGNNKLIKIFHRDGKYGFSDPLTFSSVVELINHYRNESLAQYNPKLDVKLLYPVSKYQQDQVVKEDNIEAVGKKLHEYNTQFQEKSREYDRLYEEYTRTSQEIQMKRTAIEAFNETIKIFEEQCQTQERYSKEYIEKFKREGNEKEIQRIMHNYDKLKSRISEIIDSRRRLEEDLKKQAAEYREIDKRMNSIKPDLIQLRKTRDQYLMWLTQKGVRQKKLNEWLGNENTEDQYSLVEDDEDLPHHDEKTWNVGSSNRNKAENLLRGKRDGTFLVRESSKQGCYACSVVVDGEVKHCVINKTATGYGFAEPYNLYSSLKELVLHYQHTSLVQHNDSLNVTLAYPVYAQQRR

IC50 ([1]; THP-1 cells) | IC50 [2] | IC50 [3] | IC50 [1, 4] | SMILES
500 to 1000 nM | 500 to 2000 nM | < 100 nM |  | Cc1ccc(C(C)(O)C(F)F)cc1-c1cnc2c(N)nc(C(F)(F)F)cn12 (single isomer, unassigned) [Example 26, 2-(3-(8-Amino-6-(trifluoromethyl)imidazo[1,2-a]pyrazin-3-yl)-4-methylphenyl)-1,1-difluoropropan-2-ol]
100 to 500 nM | 100 to 500 nM | < 100 nM |  | Cc1ccc(C(C)(O)C(F)F)cc1-c1cnc2c(N)nc(C(F)(F)F)cn12 (single isomer, unassigned) [Example 27, 2-(3-(8-Amino-6-(trifluoromethyl)imidazo[1,2-a]pyrazin-3-yl)-4-methylphenyl)-1,1-difluoropropan-2-ol]
 | 100 to 500 nM | < 100 nM | 100 to 500 nM | Cc1ccc(C(C)(O)C(F)F)cc1-c1cnc2c(N)nc(-c3ccnn3C)cn12 (single isomer, unassigned) [Example 29, 2-(3-(8-Amino-6-(1-methyl-1H-pyrazol-5-yl)imidazo[1,2-a]pyrazin-3-yl)-4-methylphenyl)-1,1-difluoropropan-2-ol 1.2 trifluoroacetate salt]
100 to 500 nM | 100 to 500 nM | < 100 nM |  | Cc1ccc(C(C)(O)C(F)F)cc1-c1cnc2c(N)nc(-c3ccnn3C)cn12 (single isomer, unassigned) [Example 30, 2-(3-(8-Amino-6-(1-methyl-1H-pyrazol-5-yl)imidazo[1,2-a]pyrazin-3-yl)-4-methylphenyl)-1,1-difluoropropan-2-ol]
 | < 100 nM | < 100 nM | < 100 nM | Cc1ccc(C(C)(O)C(F)F)cc1-c1cnc2c(N)nc(-c3ccnn3C)nn12 (single isomer, unassigned) [Example 51, 2-(3-(4-Amino-2-(1-methyl-1H-pyrazol-5-yl)imidazo[2,1-f][1,2,4]triazin-7-yl)-4-methylphenyl)-1,1-difluoropropan-2-ol trifluoroacetate salt]
 | 100 to 500 nM | < 100 nM | 100 to 500 nM | Cc1ncc(-c2nc(N)c3ncc(-c4cc(C(C)(O)C(F)F)ccc4C)n3n2)o1 (single isomer, unassigned) [Example 52, 2-(3-(4-Amino-2-(2-methyloxazol-5-yl)imidazo[2,1-f][1,2,4]triazin-7-yl)-4-methylphenyl)-1,1-difluoropropan-2-ol trifluoroacetate salt]

Continued, compound first:

SMILES | IC50 ([1]; THP-1 cells) | IC50 [2] | IC50 [3] | IC50 [1, 4]
CNCCC(O)(c1ccc(C)c(-c2cnc3c(N)nc(C(F)(F)F)cn23)c1)C(F)(F)F (single isomer, unassigned) [Example 15, 2-(3-(8-Amino-6-(trifluoromethyl)imidazo[1,2-a]pyrazin-3-yl)-4-methylphenyl)-1,1,1-trifluoro-4-(methylamino)butan-2-ol] | 100 to 500 nM | 100 to 500 nM | < 100 nM | 
CNCCC(O)(c1ccc(C)c(-c2cnc3c(N)nc(C(F)(F)F)cn23)c1)C(F)(F)F (single isomer, unassigned) [Example 16, 2-(3-(8-Amino-6-(trifluoromethyl)imidazo[1,2-a]pyrazin-3-yl)-4-methylphenyl)-1,1,1-trifluoro-4-(methylamino)butan-2-ol] | 500 to 1000 nM | 100 to 500 nM | < 100 nM | 
[2H]C([2H])([2H])n1nccc1-c1cn2c(-c3cc(C(C)(O)C(F)F)ccc3C)cnc2c(N)n1 (single isomer, unassigned) [Example 25, 2-(3-(8-Amino-6-(1-(methyl-d3)-1H-pyrazol-5-yl)imidazo[1,2-a]pyrazin-3-yl)-4-methylphenyl)-1,1-difluoropropan-2-ol trifluoroacetate salt] |  | 100 to 500 nM | < 100 nM | 100 to 500 nM
Cc1ccc(C(C)(O)C(F)F)cc1-c1cnc2c(N)nc(-c3ccnc(CO)c3)cn12 (single isomer, unassigned) [Example 44, 2-(3-(8-Amino-6-(2-(hydroxymethyl)pyridin-4-yl)imidazo[1,2-a]pyrazin-3-yl)-4-methylphenyl)-1,1-difluoropropan-2-ol] |  | < 100 nM | < 100 nM | < 100 nM
Cc1ccc(C(C)(O)C(F)F)cc1-c1cnc2c(N)nc(-c3ccnc(CO)c3)cn12 (single isomer, unassigned) [Example 45, 2-(3-(8-Amino-6-(2-(hydroxymethyl)pyridin-4-yl)imidazo[1,2-a]pyrazin-3-yl)-4-methylphenyl)-1,1-difluoropropan-2-ol] | 100 to 500 nM | < 100 nM | < 100 nM | 
Cc1ccc(C(C)(O)C(F)(F)C(F)(F)F)cc1-c1cnc2c(N)nc(C(F)(F)F)cn12 (single isomer, unassigned) [Example 60, 2-(3-(8-Amino-6-(trifluoromethyl)imidazo[1,2-a]pyrazin-3-yl)-4-methylphenyl)-3,3,4,4,4-pentafluorobutan-2-ol] |  | 500 to 2000 nM | < 100 nM | > 1000 nM
Cc1ccc(C(C)(O)C(F)(F)F)cc1-c1cnc2c(N)nc(C(=O)NCC(C)(C)O)cn12 (single isomer, unassigned) [Example 63, 8-amino-N-(2-hydroxy-2-methylpropyl)-3-(2-methyl-5-(1,1,1-trifluoro-2-hydroxypropan-2-yl)phenyl)imidazo[1,2-a]pyrazine-6-carboxamide] | 100 to 500 nM | 100 to 500 nM | < 100 nM | 
[2H]C([2H])([2H])n1nccc1-c1cn2c(-c3cc(C(O)(CO)C(F)(F)F)ccc3C)cnc2c(N)n1 (single isomer, unassigned) [Example 66, 2-(3-(8-Amino-6-(1-(methyl-d3)-1H-pyrazol-5-yl)imidazo[1,2-a]pyrazin-3-yl)-4-methylphenyl)-3,3,3-trifluoropropane-1,2-diol] |  | < 100 nM | < 100 nM | < 100 nM
Cc1ccc(C(O)(CO)C(F)(F)F)cc1-c1cnc2c(N)nc(C(F)(F)F)cn12 (single isomer, unassigned) [Example 72, 2-(3-(8-Amino-6-(trifluoromethyl)imidazo[1,2-a]pyrazin-3-yl)-4-methylphenyl)-3,3,3-trifluoropropane-1,2-diol] | < 100 nM | 100 to 500 nM | < 100 nM | 
